Data set [1] is described as follows: Test Example 1: Evaluation of the solubility in an organic solvent (saturated solution, HPLC). The format is physicochemical. The note with it: for amount of the compound dissolved in 100 g of organic solvent: per 100 g solvent, 20° C., saturated, stirred one hour or longer; for solubility as compared to the compound in Reference Synthesis Example 3: in toluene, cyclopentyl methyl ether, and ethyl acetate. Here is the method:
In the measurement of the solubility, the compounds obtained in Synthesis Examples 2 and 6 and Reference Synthesis Example 3 were used.
A test compound was dissolved in toluene, cyclopentyl methyl ether, or ethyl acetate so as to be saturated, and stirred at 20° C. for one hour or longer. The obtained solution was subjected to centrifugal filtration, and then the resultant filtrate was subjected to analysis under the below-shown conditions for measurement, determining an amount of the test compound dissolved.
(§1) • High performance liquid chromatography: HPLC-20A, manufactured by SHIMADZU Corporation • Column: XBridge C18 (2.5 μm, 4.6×100 mm) • Column oven temperature: 40° C. • Eluent: A=0.2 vol % aqueous solution of trifluoroacetic acid • B=0.2 vol % acetonitrile solution of trifluoroacetic acid • AB=50/50 (0 to 2 minutes), 50/50 to 0/100 (2 to 15 minutes), 0/100 (15 to 40 minutes) • Eluent flow rate: 1.0 mL/minute • Wavelength for detection: 210 nm [Results of Test]
The compounds in Synthesis Examples 2 and 6 were improved in the solubility in toluene, cyclopentyl methyl ether, and ethyl acetate, as compared to the compound in Reference Synthesis Example 3.

The nature of data set [2]: Test Example 2: Evaluation of the solubility in an organic solvent (HPLC). The format is physicochemical. The note with it: for amount of the compound dissolved in 100 g of organic solvent: per 100 g solvent, 20° C., stirred one hour or longer. Here is the method: In the measurement of the solubility, the compound obtained in Synthesis Example 8 was used.
A test compound was dissolved in toluene, cyclopentyl methyl ether, or ethyl acetate, and stirred at 20° C. for one hour or longer. The obtained solution was subjected to centrifugal filtration, and then the resultant filtrate was subjected to analysis under the below-shown conditions for measurement, determining an amount of the test compound dissolved.
as §1
The compound in Synthesis Example 8 was improved in the solubility in toluene, cyclopentyl methyl ether, and ethyl acetate, as compared to the compound in Reference Synthesis Example 3.

The record followed here is patent US12466850B2, “Method for producing peptide compound” (priority 2019, dated 2025).

Bounds are passed on as bounds.

Consider `C[Si](C)(C)CCOC(=O)[C@H](Cc1ccccc1)NC(=O)[C@H](Cc1ccccc1)NC(=O)OCC1c2ccccc2-c2ccccc21` [Reference Synthesis Example 3, Fmoc-Phe-Phe-OTMSE, reference compound], for which the “amount of the compound dissolved in 100 g of organic solvent” value (shortened to “amount of the compound dissolved”) was found to be 1.4 g in data set [1] (cyclopentyl methyl ether); 4.5 g in data set [1] (ethyl acetate); 0.87 g in data set [1] (toluene); 1.4 g in data set [2] (cyclopentyl methyl ether); 4.5 g in data set [2] (ethyl acetate); 0.87 g in data set [2] (toluene).
As for `CC[Si](CC)(CCCOCC(CCC(C)CC(C)(C)C)C(C)CC(C)(C)C)CCOC(=O)[C@H](Cc1ccccc1)NC(=O)[C@H](Cc1ccccc1)NC(=O)OCC1c2ccccc2-c2ccccc21` (stereo partly drawn) [Synthesis Example 2, Fmoc-Phe-Phe-OFESE], the “amount of the compound dissolved” value in data set [1] (cyclopentyl methyl ether) came to 111 g; in data set [1] (ethyl acetate), 97 g; in data set [1] (toluene) it was 116 g. The “solubility as compared to the compound in Reference Synthesis Example 3” value (“solubility as compared to the compound” for short) in data set [1] is reported as “improved”.
For `CCCCCCCCCCCCCCCCCC[Si](C)(C)CCOC(=O)[C@H](Cc1ccccc1)NC(=O)[C@H](Cc1ccccc1)NC(=O)OCC1c2ccccc2-c2ccccc21` [Synthesis Example 6, Fmoc-Phe-Phe-ODMSE], the “amount of the compound dissolved” value is 41 g in data set [1] (cyclopentyl methyl ether), 8.4 g in data set [1] (ethyl acetate) and 38 g in data set [1] (toluene). The “solubility as compared to the compound” value in data set [1] was “improved”.
Turning to `CC(CCC(COCCC[Si](CCOC(=O)[C@H](Cc1ccccc1)NC(=O)[C@H](Cc1ccccc1)NC(=O)OCC1c2ccccc2-c2ccccc21)(c1ccccc1)c1ccccc1)C(C)CC(C)(C)C)CC(C)(C)C` (stereo partly drawn) [Synthesis Example 8, Fmoc-Phe-Phe-OFPSE], the “amount of the compound dissolved” value in data set [2] (cyclopentyl methyl ether), in data set [2] (ethyl acetate) and in data set [2] (toluene) was greater than 140 g in each case. Moreover, the “solubility as compared to the compound” value in data set [2] (in toluene, cyclopentyl methyl ether, and ethyl acetate) was “improved”.
